From PubChem BioAssay (NCI)
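The compound was tested at five concentrations on cells cultured in 96-well plates, with a 48-hour exposure period. GI50 = concentration required for 50% inhibition of growth. TGI is the concentration that stops growth completely.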

How the values were obtained:
Experiment in all cases: NCI tumour cell line growth inhibition, 48 h
CAKI-1 renal = system: CAKI-1 renal
HS 578T breast = system: HS 578T breast
UO-31 renal = system: UO-31 renal
HCT-15 colon = system: HCT-15 colon
OVCAR-3 ovarian = system: OVCAR-3 ovarian
UACC-62 melanoma = system: UACC-62 melanoma
K-562 leukemia = system: K-562 leukemia
786-0 renal = system: 786-0 renal
T-47D breast = system: T-47D breast
SF-268 CNS = system: SF-268 CNS

Compound | TGI (CAKI-1 renal) | TGI (HS 578T breast) | TGI (UO-31 renal) | TGI (HCT-15 colon) | TGI (OVCAR-3 ovarian) | TGI (UACC-62 melanoma) | TGI (K-562 leukemia) | TGI (786-0 renal) | TGI (T-47D breast) | TGI (SF-268 CNS) | GI50 (CAKI-1 renal) | GI50 (HS 578T breast) | GI50 (UO-31 renal) | GI50 (HCT-15 colon) | GI50 (OVCAR-3 ovarian) | GI50 (UACC-62 melanoma) | GI50 (K-562 leukemia) | GI50 (T-47D breast) | GI50 (SF-268 CNS)
O=C(Cn1nc(Br)c(Br)c1Br)c1ccccc1 | 96.7 µM | > 100 µM | 57 µM | > 100 µM | > 100 µM | 56.9 µM | 28.7 µM | 77.4 µM | 89.1 µM | > 100 µM |  |  |  |  |  |  |  |  | 
COc1cc(OC)c2c(c1OC)OCC(Cc1ccc(O)cc1)C2=O (stereo unspecified) | > 25 µM | > 25 µM | > 25 µM | > 25 µM | > 25 µM | > 25 µM | > 25 µM | > 25 µM | > 25 µM | > 25 µM |  |  |  |  |  |  |  |  | 
CCCN1C(=O)CCC2=C1CCc1c2ccc(Cl)c1Cl | > 100 µM | 22 µM | > 100 µM | > 100 µM | 86.7 µM | 5.44 µM | > 100 µM | > 100 µM | > 100 µM | > 100 µM |  |  |  |  |  |  |  |  | 
CC(C)(C)c1ccc(CN2CCN(C(c3ccccc3)c3ccc(Cl)cc3)CC2)cc1 (stereo unspecified) | > 100 µM | > 100 µM | > 100 µM | > 100 µM | > 100 µM | > 100 µM | > 100 µM | > 100 µM | 54.9 µM | > 100 µM |  |  |  |  |  |  |  |  | 
CC1CCCC2=C1C(c1ccc(Cl)cc1)n1c(s/c(=C\c3ccc(Cl)cc3)c1=O)=N2 (stereo unspecified) | > 100 µM | > 100 µM | > 100 µM | > 100 µM |  | > 100 µM | > 100 µM | > 100 µM | > 100 µM | > 100 µM |  |  |  |  |  |  |  |  | 
NNC(=O)CNC(=O)CSc1nnc(COc2ccc(Cl)cc2)n1-c1ccccc1 | > 100 µM |  | > 100 µM | > 100 µM | > 100 µM | > 100 µM | > 100 µM | > 100 µM | > 100 µM | > 100 µM |  |  |  |  |  |  |  |  | 
COc1ccc(C2SCC(=O)N2c2ccc(-c3ccc(-n4c(-c5ccccc5)nc5ccccc5c4=O)cc3)cc2)cc1 (stereo unspecified) | > 100 µM | > 100 µM | > 100 µM | > 100 µM | 46.8 µM | > 100 µM | > 100 µM | > 100 µM | > 100 µM | > 100 µM |  |  |  |  |  |  |  |  | 
O=C1c2ccccc2CC12Cc1cc3c(cc1C2=O)CCC3 (stereo unspecified) | > 100 µM | > 100 µM | > 100 µM | > 100 µM | > 100 µM |  | > 100 µM | > 100 µM | > 100 µM | > 100 µM |  |  |  |  |  |  |  |  | 
CC[C@@]1(O)C(=O)OCc2c1cc1n(c2=O)Cc2c-1nc1ccccc1c2CC[Si](C)(C)C | 0.207 µM | > 100 µM | 0.056 µM | > 100 µM | 1.4 µM | 0.176 µM | > 100 µM | < 0.0266 µM | > 27.7 µM |  |  |  |  |  |  |  |  |  | 
O=C(/C=C/c1ccc(O)c(O)c1)OCCc1cccc2ccccc12 | 20.7 µM |  | 18.4 µM | 9.64 µM | 14.1 µM | 15 µM | 9.08 µM | 12.7 µM | 42.3 µM | 27 µM |  |  |  |  |  |  |  |  | 
CCOP(=O)(/C=C\n1cnc2c(=O)n(C(C)=O)c(N)nc21)OCC | > 100 µM |  |  | > 100 µM | > 100 µM | > 100 µM | > 100 µM | > 100 µM | > 100 µM |  |  |  |  |  |  |  |  |  | 
CC(=O)c1ccc(Oc2ccc(/C(C)=N\N=C(N)N)cc2)cc1 |  |  |  | 13.2 µM | 4.89 µM | 10.1 µM |  |  |  | 16.1 µM |  |  |  |  |  |  |  |  | 
COC(=O)CC1(CNC(=O)OCc2ccccc2)OCCO1 | > 100 µM |  | > 100 µM | > 100 µM | > 100 µM | > 100 µM | > 100 µM | > 100 µM |  |  |  |  |  |  |  |  |  |  | 
O=c1[nH]c2ccc(CC(=S)N3CCOCC3)cc2s1 | > 100 µM | > 100 µM |  | > 100 µM | > 100 µM | > 100 µM | > 100 µM | > 100 µM |  | > 100 µM |  |  |  |  |  |  |  |  | 
O=C(NO)c1coc2ccccc2c1=O | 68.5 µM |  | > 100 µM | > 100 µM |  | > 100 µM | > 100 µM |  |  | > 100 µM |  |  |  |  |  |  |  |  | 
COP(C)(=O)/C(Cc1ccccc1)=N\O (stereo unspecified) | > 100 µM | > 100 µM | > 100 µM | > 100 µM | > 100 µM |  | > 100 µM |  | > 100 µM |  |  |  |  |  |  |  |  |  | 
Cc1csc2nc(-c3ccc([N+](=O)[O-])cc3)c(/C=N/N=C(N)N)n12 | 12.6 µM | 3.15 µM | 2.88 µM | 1.68 µM | 5.7 µM | 3.17 µM |  | 3.24 µM | > 100 µM | 3.29 µM |  |  |  |  |  |  |  |  | 
O=C1OCC(C#Cc2ccccc2)=C1Cl | 26.7 µM | 18 µM | > 100 µM | 15.7 µM | 10.8 µM | 18.8 µM | 14.6 µM |  | 30.3 µM | 72.7 µM | 3.27 µM | 2.46 µM | 2.15 µM | 4.36 µM | 1.9 µM | 6.21 µM | 1.86 µM | 12.6 µM | 6.82 µM
CC(=O)O[C@H]1CC[C@]2(C)[C@H]3CC[C@@H]4[C@H]5[C@H](C(C)C)CC[C@]5(C(=O)OCC(CO)(CO)N=C(N)N)CC[C@@]4(C)[C@]3(C)CC[C@H]2C1(C)C | 2.98 µM | 5.04 µM |  | 3.71 µM | 3.2 µM |  |  |  | 2.91 µM |  | 1.46 µM | 2.05 µM |  | 1.79 µM | 1.67 µM |  |  | 1.51 µM | 
CC(=O)[O-].CC(=O)[O-].O=C(N/N=C/c1cc(Cl)cc(Cl)c1[OH2+])c1ccncc1.[Co+2] |  |  | > 100 µM | > 100 µM | > 100 µM | > 100 µM | > 100 µM | > 100 µM |  | > 100 µM |  |  |  |  |  |  |  |  | 
CC[N+]1(C)CCC(O)(c2ccc(Cl)cc2)C(C(=O)c2ccc(Cl)cc2)C1 (stereo unspecified) |  | 38.3 µM | 34.5 µM | 41.3 µM | 43.3 µM | 27.9 µM | 17.2 µM |  | 17.8 µM | 58.8 µM |  |  |  |  |  |  |  |  | 
Cc1nc2c(o1)C(=O)c1ccccc1/C2=N/c1ccccn1 | 47.9 µM | 41.1 µM | 39.3 µM | 28.4 µM | 49.3 µM | 34.9 µM | > 100 µM | 58.7 µM |  | 68.9 µM |  |  |  |  |  |  |  |  | 
Cc1cc2[nH]c3c(C#N)c(-c4ccccc4)c(N=Nc4cccc(C(F)(F)F)c4)c(=O)n3c2cc1C | > 100 µM |  | > 100 µM | > 100 µM | 57 µM |  |  | > 100 µM | > 100 µM | > 100 µM |  |  |  |  |  |  |  |  | 
CCOP(=O)(Nc1ccc(-c2ccccc2)cc1)OCC | > 100 µM | > 100 µM | > 100 µM | > 100 µM | > 100 µM | > 100 µM | > 100 µM | > 100 µM |  | > 100 µM |  |  |  |  |  |  |  |  | 
